Test systems include Staphylococcus aureus; Streptococcus sanguinis; Candida albicans; Escherichia coli 1005; Acinetobacter baumannii; Burkholderia cepacia; Enterococcus faecium; Escherichia coli ESBL; Klebsiella pneumoniae; Moraxella catarrhalis; Streptococcus mutans; Vibrio cholerae CUN 09.
Experiment in all cases: ≥ marks a high value that may be exact or a test limit, other limits are often not marked, values filed in µg/mL are converted to µM
Experiment [1] has as its system Aspergillus brasiliensis ATCC 16404.
The subject of experiment [2] is Candida albicans ATCC 10231.
The test system of experiment [3] is Enterococcus faecalis ATCC 29212.
For experiment [4], the system named is Escherichia coli ATCC 25922.
Experiment [5] concerns Pseudomonas aeruginosa ATCC 27853.
The subject of experiment [6] is Staphylococcus aureus ATCC 29213.
Experiment [7] relates to Candida krusei CGMCC 2.1857.
Experiment [8] has as its system Candida parapsilosis CGMCC 2.3989.
For experiment [9], the system named is Candida tropicalis CGMCC 2.1975.
Experiment [10] concerns Salmonella enterica subsp. enterica serovar Pullorum ATCC 7913.
Experiment [11] has as its system Salmonella enterica subsp. enterica serovar Typhimurium ATCC 14028.
The test system of experiment [12] is Staphylococcus aureus ATCC 25923.
Experiment [13] deals with Staphylococcus aureus ATCC 43300.
In experiment [14] the test system is Staphylococcus epidermidis ATCC 12228.
Experiment [15] relates to Candida albicans ATCC 14053.
Experiment [16] has as its system Escherichia coli ATCC 11775.
Experiment [17] relates to Micrococcus luteus ATCC 49732.
For experiment [18], the system named is Staphylococcus aureus ATCC 12600.
The subject of experiment [19] is Acinetobacter baumannii ATCC 19506.
The subject of experiment [20] is Bordetella bronchiseptica CUN 11844-99.
The test system of experiment [21] is Pseudomonas aeruginosa CUN 4158-02.
The subject of experiment [22] is Salmonella enterica serovar Minnesota R60.
The subject of experiment [23] is Staphylococcus aureus CUN 3792-99.

≈ marks a conversion by molar mass, not a printed value. Where “and” joins values, the source holds several entries; their conditions need not be identical. Equal entries are not always repeated.

As for `CC[C@H](C)[C@H](NC(=O)[C@H](CCCCN)NC(=O)CNC(=O)[C@@H]1CCCN1C(=O)[C@H](Cc1cnc[nH]1)NC(=O)[C@H](CC(C)C)NC(=O)[C@H](CC(C)C)NC(=O)[C@H](Cc1ccc(O)cc1)NC(=O)[C@H](CS)NC(=O)CN)C(=O)N[C@@H](CS)C(=O)N[C@@H](Cc1ccc(O)cc1)C(=O)O` [GCYLLHPGKICY], the MIC (as a rule, the lowest concentration found to suppress growth) in experiment [1] is no less than 64 µM; in [2] it was greater than 64 µM; in experiment [3], greater than 64 µM; in [4], greater than 64 µM; in [5], greater than 64 µM; in experiment [6], greater than 64 µM.

Consider `NC(=O)[C@H](Cc1ccccc1)NC(=O)[C@H](Cc1ccccc1)NC(=O)[C@H](Cc1ccccc1)NC(=O)[C@@H](N)Cc1ccccc1` [FFFF], for which the minimum inhibitory concentration (MIC) against Staphylococcus aureus is 583 µM (≈ 353 µg/mL); with Streptococcus sanguinis it was no less than 291 µM.

Regarding `CC(C)C[C@H](NC(=O)[C@H](CCCN=C(N)N)NC(=O)[C@H](CC(C)C)NC(=O)[C@H](CC(C)C)NC(=O)[C@H](CC(C)C)NC(=O)[C@H](CCCN=C(N)N)NC(=O)[C@H](CC(C)C)NC(=O)[C@H](CCCN=C(N)N)NC(=O)[C@@H](N)CCCN=C(N)N)C(=O)N[C@@H](CCCN=C(N)N)C(=O)N[C@@H](CCCN=C(N)N)C(N)=O` [RRLRLLLRLRR], the MIC with Candida albicans is 4 µM (≈ 6.08 µg/mL); in experiment [7], 4 µM (≈ 6.08 µg/mL); in experiment [8], no less than 64 µM; in experiment [9] it was 2 µM (≈ 3.04 µg/mL); against Escherichia coli 1005 it was 4 µM (≈ 6.08 µg/mL); in experiment [10] it was 2 µM (≈ 3.04 µg/mL). For the same compound, the minimal inhibitory concentration (MIC) in [11] came out at 4 µM (≈ 6.08 µg/mL); in experiment [12], 4 µM (≈ 6.08 µg/mL); in experiment [6], 16 µM (≈ 24.3 µg/mL); in experiment [13], 8 µM (≈ 12.2 µg/mL); in [14], 4 µM (≈ 6.08 µg/mL).

For the compound `CSCC[C@H](NC(=O)[C@@H](NC(=O)[C@@H](N)[C@@H](C)O)[C@@H](C)O)C(=O)N1CCC[C@H]1C(=O)N[C@@H](CC(C)C)C(=O)N[C@@H](Cc1c[nH]c2ccccc12)C(=O)O` [TTMPLW], the MIC in [15] was no less than 144 µM; in experiment [16], no less than 193 µM; in experiment [17] it was no less than 64 µM; in experiment [18], no less than 193 µM.

Take `NCCCC[C@H](NC(=O)CNC(=O)[C@H](CCCCN)NC(=O)[C@H](Cc1ccccc1)NC(=O)[C@H](CCCCN)NC(=O)[C@H](Cc1c[nH]c2ccccc12)NC(=O)[C@H](CCCN=C(N)N)NC(=O)[C@H](Cc1ccccc1)NC(=O)[C@H](CCCN=C(N)N)NC(=O)[C@H](CCCN=C(N)N)NC(=O)[C@H](Cc1ccc(O)cc1)NC(=O)[C@H](CCCCN)NC(=O)[C@H](CCCCN)NC(=O)[C@H](CS)NC(=O)CN)C(=O)N[C@@H](Cc1ccccc1)C(=O)N[C@@H](Cc1c[nH]c2ccccc12)C(=O)N[C@@H](Cc1ccccc1)C(=O)N[C@@H](Cc1c[nH]c2ccccc12)C(=O)NCC(N)=O` [GCKKYRRFRWKFKGKFWFWG]: the MIC is no less than 47.2 µM in experiment [19]; no less than 47.2 µM in the experiment on Acinetobacter baumannii; 11.8 µM (≈ 32 µg/mL) in experiment [20]; 11.8 µM (≈ 32 µg/mL) against Burkholderia cepacia; 94.4 µM (≈ 256 µg/mL) in the experiment on Candida albicans; 11.8 µM (≈ 32 µg/mL) in the experiment on Enterococcus faecium. In addition, the MIC in experiment [4] is 47.2 µM (≈ 128 µg/mL); in the experiment with Escherichia coli ESBL, ≥ 47.2 µM and 23.6 µM; against Klebsiella pneumoniae, greater than 47.2 µM; in the experiment on Moraxella catarrhalis, 11.8 µM (≈ 32 µg/mL); in experiment [5] it was 94.4 µM (≈ 256 µg/mL); in experiment [21], no less than 47.2 µM. Also, the minimum inhibitory concentration (MIC) in [22] was 11.8 µM (≈ 32 µg/mL); in experiment [12] it was 11.8 µM (≈ 32 µg/mL); in [13], 11.8 µM (≈ 32 µg/mL); in experiment [23], no less than 47.2 µM; with Streptococcus mutans, 11.8 µM (≈ 32 µg/mL); in the experiment on Vibrio cholerae CUN 09, no less than 94.4 µM.

These data come from DBAASP.
